Source: paper PMC10035904, “Synthesis of novel sulphamethoxazole derivatives and exploration of their anticancer and antimicrobial properties” (PLOS ONE, 2023)

Tests used:
[1] = tested on: HF, PPC-1, and CaKi-1 cells; test: MTT cell viability screen at 100 μM (cell line not given); format: cell-based, human; conditions: 72 h, cell line not stated
Method: The effect of synthesized compounds on cell viability was studied using 3-(4,5-dimethylthiazol-2-yl)-2,5-diphenyltetrazolium bromide (MTT; Sigma-Aldrich Co., St Louis, MO, USA) assay, as described elsewhere. Briefly, HF, PPC-1, and CaKi-1 cells were seeded in 96-well plates (Corning) in triplicates at a volume of 100 μL at a concentration of 4 × 10^3 cells/well. After 24 h of incubation, the cells were treated with 100 μM of tested compounds. After 72 h, the MTT reagent (at 0.5 mg/mL concentration) has been added to the wells, and cells were incubated for 4 h. Then the medium was aspirated, and the formed purple crystals were dissolved in 100 μL DMSO (Sigma-Aldrich Co.). The absorbance was measured at 570 and 630 nm using a multi-detection microplate reader. The compound effect on cell viability was calculated using a formula (1): Relativecellviability%=A−A0/ANC−A0 (1) Where: […]

SMILES | melting point [°C] | reduced cell viability up to about [1]
Cc1cc(NS(=O)(=O)c2ccc(NCCC(=O)O)cc2)no1 [Compound 2, 3-((4-(N-(5-methylisoxazol-3-yl)sulfamoyl)phenyl)amino)propanoic acid] | 188 to 189 | 
COC(=O)CCNc1ccc(S(=O)(=O)Nc2cc(C)on2)cc1 [Compound 3, Methyl 3-((4-(N-(5-methylisoxazol-3-yl)sulfamoyl)phenyl)amino)propanoate] | 148 to 149 | 
Cc1cc(NS(=O)(=O)c2ccc(N3CCC(=O)NC3=S)cc2)no1 [Compound 6, N-(5-methylisoxazol-3-yl)-4-(4-oxo-2-thioxotetrahydropyrimidin-1(2H)-yl)benzenesulfonamide] | 240 to 241 | 
Cc1cc(NS(=O)(=O)c2ccc(NC=CC(=O)Nc3ccc(S(N)(=O)=O)cc3)cc2)no1 [Compound 7, 3-((4-(N-(5-methylisoxazol-3-yl)sulfamoyl)phenyl)amino)-N-(4-sulfamoylphenyl)propenamide] | 213 to 214 | 
Cc1cc(NS(=O)(=O)c2ccc(NC=CC(=O)Nn3c(C)ccc3C)cc2)no1 [Compound 8, N-(2,5-dimethyl-1H-pyrrol-1-yl)-3-((4-(N-(5-methylisoxazol-3-yl)sulfamoyl)phenyl)amino)propenamide] | 118 to 119 | 
Cc1cc(C)n(C(=O)CCNc2ccc(S(=O)(=O)Nc3cc(C)on3)cc2)n1 [Compound 9, 4-((3-(3,5-Dimethyl-1H-pyrazol-1-yl)-3-oxopropyl)amino)-N-(5-methylisoxazol-3-yl)benzenesulfonamide] | 144 to 145 | 
Cc1cc(NS(=O)(=O)c2ccc(NCCC(=O)NNC(=O)Nc3ccccc3)cc2)no1 [Compound 10, 2-(3-((4-(N-(5-methylisoxazol-3-yl)sulfamoyl)phenyl)amino)propanoyl)-N-phenylhydrazine-1-carboxamide] | 204 to 205 | 
Cc1cc(NS(=O)(=O)c2ccc(NCCC(=O)NNC(=S)Nc3ccccc3)cc2)no1 [Compound 11, 2-(3-((4-(N-(5-methylisoxazol-3-yl)sulfamoyl)phenyl)amino)propanoyl)-N-phenylhydrazine-1-carbothioamide] | 183 to 184 | 
Cc1cc(NS(=O)(=O)c2ccc(NCCc3n[nH]c(=O)n3-c3ccccc3)cc2)no1 [Compound 12, N-(5-methylisoxazol-3-yl)-4-((2-(5-oxo-4-phenyl-4,5-dihydro-1H-1,2,4-triazol-3-yl)ethyl)amino)-benzenesulfonamide] | 188 to 189 | 
Cc1cc(NS(=O)(=O)c2ccc(NCCc3n[nH]c(=S)n3-c3ccccc3)cc2)no1 [Compound 13, N-(5-methylisoxazol-3-yl)-4-((2-(4-phenyl-5-thioxo-4,5-dihydro-1H-1,2,4-triazol-3-yl)ethyl)amino)-benzenesulfonamide] | 222 to 223 | 
Cc1cc(NS(=O)(=O)c2ccc(NCCC(=O)NN=C3C(=O)Nc4ccccc43)cc2)no1 [Compound 14, N-(5-methylisoxazol-3-yl)-4-((3-oxo-3-(2-(2-oxoindolin-3-ylidene)hydrazineyl)propyl)amino)-benzenesulfonamide] | 209 to 210 | 

More lines, main results first:

melting point [°C] | SMILES | reduced cell viability up to about [1]
182 to 183 | Cc1cc(NS(=O)(=O)c2ccc(N(CCC(=O)O)C(N)=S)cc2)no1 [Compound 6a, 3-(1-(4-(N-(5-methylisoxazol-3-yl)sulfamoyl)phenyl)thioureido)propanoic acid] | 
199 to 200 | Cc1cc(NS(=O)(=O)c2ccc(NCCC(=O)NN=Cc3ccccc3)cc2)no1 [Compound 15a, 4-((3-(2-Benzylidenehydrazineyl)-3-oxopropyl)amino)-N-(5-methylisoxazol-3-yl)benzenesulfonamide] | 
193 to 194 | Cc1cc(NS(=O)(=O)c2ccc(NCCC(=O)NN=Cc3ccccc3O)cc2)no1 [Compound 15b, 4-((3-(2-(2-Hydroxybenzylidene)hydrazineyl)-3-oxopropyl)amino)-N-(5-methylisoxazol-3-yl)benzene-sulfonamide] | 
218 to 219 | Cc1cc(NS(=O)(=O)c2ccc(NCCC(=O)NN=Cc3ccc(O)cc3)cc2)no1 [Compound 15c, 4-((3-(2-(4-Hydroxybenzylidene)hydrazineyl)-3-oxopropyl)amino)-N-(5-methylisoxazol-3-yl)benzene-sulfonamide] | 
213 to 214 | Cc1cc(NS(=O)(=O)c2ccc(NCCC(=O)NN=Cc3ccc(F)cc3)cc2)no1 [Compound 15d, 4-((3-(2-(4-Fluorobenzylidene)hydrazineyl)-3-oxopropyl)amino)-N-(5-methylisoxazol-3-yl)benzene-sulfonamide] | 
202 to 203 | Cc1cc(NS(=O)(=O)c2ccc(NCCC(=O)NN=Cc3ccccc3Cl)cc2)no1 [Compound 15e, 4-((3-(2-(2-Chlorobenzylidene)hydrazineyl)-3-oxopropyl)amino)-N-(5-methylisoxazol-3-yl)benzene-sulfonamide] | about 40%
210 to 211 | Cc1cc(NS(=O)(=O)c2ccc(NCCC(=O)NN=Cc3ccc(Cl)cc3)cc2)no1 [Compound 15f, 4-((3-(2-(4-Chlorobenzylidene)hydrazineyl)-3-oxopropyl)amino)-N-(5-methylisoxazol-3-yl)benzene-sulfonamide] | 
206 to 207 | COc1ccc(C=NNC(=O)CCNc2ccc(S(=O)(=O)Nc3cc(C)on3)cc2)cc1 [Compound 15g, 4-((3-(2-(4-Methoxybenzylidene)hydrazineyl)-3-oxopropyl)amino)-N-(5-methylisoxazol-3-yl)benzene-sulfonamide] | 
208 to 209 | Cc1cc(NS(=O)(=O)c2ccc(NCCC(=O)NN=Cc3cccc([N+](=O)[O-])c3)cc2)no1 [Compound 15h, 4-((3-(2-(3-Nitrobenzylidene)hydrazineyl)-3-oxopropyl)amino)-N-(5-methylisoxazol-3-yl)benzene-sulfonamide] | 
210 to 211 | Cc1cc(NS(=O)(=O)c2ccc(NCCC(=O)NN=Cc3cc([N+](=O)[O-])ccc3Cl)cc2)no1 [Compound 15i, 4-((3-(2-(2-Chloro-5-nitrobenzylidene)hydrazineyl)-3-oxopropyl)amino)-N-(5-methylisoxazol-3-yl)benzenesulfonamide] | 
214 to 215 | Cc1cc(NS(=O)(=O)c2ccc(NCCC(=O)NN=Cc3ccc([N+](=O)[O-])cc3)cc2)no1 [Compound 15j, 4-((3-(2-(4-Nitrobenzylidene)hydrazineyl)-3-oxopropyl)amino)-N-(5-methylisoxazol-3-yl)benzene-sulfonamide] | 
185 to 186 | Cc1cc(NS(=O)(=O)c2ccc(NCCC(=O)NN=Cc3ccco3)cc2)no1 [Compound 16a, 4-((3-(2-(Furan-2-ylmethylene)hydrazineyl)-3-oxopropyl)amino)-N-(5-methylisoxazol-3-yl)benzene-sulfonamide] | 
215 to 216 | Cc1cc(NS(=O)(=O)c2ccc(NCCC(=O)NN=Cc3cccs3)cc2)no1 [Compound 16c, N-(5-methylisoxazol-3-yl)-4-((3-oxo-3-(2-(thiophen-2-ylmethylene)hydrazineyl)propyl)amino)-benzenesulfonamide] | 
195 to 196 | Cc1cc(NS(=O)(=O)c2ccc(NCCC(=O)NN=Cc3ccc([N+](=O)[O-])s3)cc2)no1 [Compound 16d, N-(5-methylisoxazol-3-yl)-4-((3-(2-((5-nitrothiophen-2-yl)methylene)hydrazineyl)-3-oxopropyl)amino)-benzenesulfonamide] | about 40%
